“Also recorded” adds a separate entry of the source. Read-outs that look alike come from different tables or passages of the source.
Key:
[1] = molecular target: wild-type Nsp9COV19 as substrate of Nsp12COV19 NiRAN domain (Severe acute respiratory syndrome coronavirus 2, UniProt P0DTD1); format: biochemical; settings: for Nsp9COV19 Cy3-modification, % of the signal of DMSO-only control reactions: 500 μM compound, 15 μM Nsp9COV19, 1 μM Nsp12COV19, triplicate
Vero 81 cells = settings: Vero 81, highest 50 μM concentration point
SARS-CoV-2 [2] = format: cell-based
Vero e6 cells = settings: Vero e6, highest 50 μM concentration point
SARS-CoV-2 [3] = settings: cited from earlier work
Nsp9COV19 = Nsp9COV19 (Severe acute respiratory syndrome coronavirus 2, UniProt P0DTD1); design: species or system SARS-CoV-2; settings: native MS; binding ratios after incubation with 50 μM of each compound

SMILES | Nsp9COV19 Cy3-modification, % of the signal of DMSO-only control reactions [1] [%] | inhibition of UMPylation reaction (in words) ([1]; UMPylation assays, discussion) | effect on cell proliferation (MTT) (Vero 81 cells) | effect on cell proliferation (MTT) (Calu-3 cells) | viral titer following SARS-CoV-2 infection (SARS-CoV-2 [2]) | viral titer following SARS-CoV-2 infection (SARS-CoV-2 [2]; Calu-3 cells, 15 μM, after 24 h) | viral titer following SARS-CoV-2 infection (SARS-CoV-2 [2]; Calu-3 cells, 15 μM, later time points (48, 72 h)) | effect on cell proliferation (MTT) (Vero e6 cells) | SARS-CoV-2 replication in in vitro cellular assays (SARS-CoV-2 [3]) | relative Nsp9COV19 binding / affinity (in words) (Nsp9COV19)
C=C1C(=O)[C@]23[C@H](O)[C@H]1CC[C@H]2[C@@]12CO[C@]3(O)[C@@H](O)[C@@H]1C(C)(C)CC[C@@H]2O [Compound 1, Oridonin] | 20 ± 6 | significant levels of inhibition | a degree of reduced proliferation | no effect on cell proliferation detected | reduce viral tite at all time points | approximately fivefold reduced | not maintained at later time points | a degree of reduced proliferation | inhibit SARS-CoV-2 replication | 
C=C1C(=O)[C@]23[C@H](O)[C@H]1CC[C@H]2[C@@]12CO[C@@]3(O)[C@@H](O)[C@@H]1[C@](C)(COC(C)=O)CC[C@H]2O [Compound 3, Xerophilusin G] |  |  |  |  |  |  |  |  |  | significantly reduced binding response; also recorded: abrogated binding completely
C=C1C(=O)[C@@]23[C@H](O)C[C@@H]4C(C)(C)CC[C@H](O)[C@@]4(CO)[C@@H]2CC[C@@H]1[C@H]3O [Compound 6, Kamebakaurin] | ~66 |  |  |  |  |  |  |  |  | some ability to cocomplex with Nsp9COV19 is retained

— PMC8553373 (The Journal of Biological Chemistry, 2021)
